Source: PubChem BioAssay (NCI)
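These data come from cells grown in 96-well plates and exposed to compound for 48 hours at five concentrations. Definition used: TGI = concentration required for complete inhibition of growth.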

Key:
Test in all cases: growth of human tumour cells (NCI), 48 h
[1] = system: 786-0 renal
[2] = system: A498 renal
[3] = system: A549 NSCLC
[4] = system: ACHN renal
[5] = system: BT-549 breast
[6] = system: CAKI-1 renal
[7] = system: CCRF-CEM leukemia
[8] = system: COLO 205 colon
[9] = system: DU-145 prostate
[10] = system: EKVX NSCLC
[11] = system: HCC-2998 colon
[12] = system: HCT-116 colon
[13] = system: HCT-15 colon
[14] = system: HL-60(TB) leukemia
[15] = system: HOP-62 NSCLC
[16] = system: HOP-92 NSCLC
[17] = system: HS 578T breast
[18] = system: HT29 colon
[19] = system: IGROV1 ovarian
[20] = system: K-562 leukemia
[21] = system: KM12 colon
[22] = system: LOX IMVI melanoma
[23] = system: M14 melanoma
[24] = system: MALME-3M melanoma
[25] = system: MCF7 breast
[26] = system: MDA-MB-231 breast
[27] = system: MDA-MB-435
[28] = system: MDA-N
[29] = system: MOLT-4 leukemia
[30] = system: NCI-H226 lung
[31] = system: NCI-H23 lung
[32] = system: NCI-H460 lung
[33] = system: NCI-H522 lung
[34] = system: NCI/ADR-RES ovarian
[35] = system: OVCAR-3 ovarian
[36] = system: OVCAR-4 ovarian
[37] = system: OVCAR-5 ovarian
[38] = system: OVCAR-8 ovarian
[39] = system: PC-3 prostate
[40] = system: RPMI-8226 leukemia
[41] = system: RXF 393 renal
[42] = system: SF-268 CNS
[43] = system: SF-295 CNS
[44] = system: SF-539 CNS
[45] = system: SK-MEL-2 melanoma
[46] = system: SK-MEL-28 melanoma
[47] = system: SK-MEL-5 melanoma
[48] = system: SK-OV-3 ovarian
[49] = system: SN12C renal
[50] = system: SNB-19 CNS
[51] = system: SNB-75 CNS
[52] = system: SR leukemia
[53] = system: SW-620 colon
[54] = system: T-47D breast
[55] = system: TK-10 renal
[56] = system: U251 CNS
[57] = system: UACC-257 melanoma
[58] = system: UACC-62 melanoma
[59] = system: UO-31 renal
[60] = system: DLD-1 colon
[61] = system: DMS 114 small cell lung
[62] = system: HOP-18 NSCLC
[63] = system: LXFL 529 NSCLC
[64] = system: M19-MEL melanoma
[65] = system: SNB-78 CNS
[66] = system: DMS 273 small cell lung
[67] = system: XF 498 CNS
[68] = system: KM20L2 colon

In the case of `S=C(N/N=C(/c1ccccc1)c1ccccn1)Nc1ccccc1Cl`, the TGI [1] is reported as 13.1 µM, the TGI [2] is reported as 7.19 µM and the TGI [3] is reported as 13 µM. For the same molecule, the TGI [4] was 9.46 µM, the TGI [5] was 17.3 µM and the TGI [6] was 11.5 µM. For the same molecule, the TGI [7] was > 38.1 µM, the TGI [8] was 2.31 µM and the TGI [9] was 17.8 µM. It also gave a TGI [10] of 9.92 µM, a TGI [11] of 8.11 µM and a TGI [12] of 3.44 µM. It also gave a TGI [13] of 7.36 µM, a TGI [14] of 0.228 µM and a TGI [15] of 16.6 µM. The TGI [16] was 11 µM, the TGI [17] was 24 µM and the TGI [18] was 13.4 µM. The TGI [19] was 7.84 µM, the TGI [20] was > 5.82 µM and the TGI [21] was 16.2 µM. It also gave a TGI [22] of 23.3 µM, a TGI [23] of 2.89 µM and a TGI [24] of 12.2 µM. It also gave a TGI [25] of 6.89 µM, a TGI [26] of 2.19 µM and a TGI [27] of 8.77 µM. For the same molecule, the TGI [28] was 13.6 µM, the TGI [29] was 1.02 µM and the TGI [30] was 2.67 µM. It also gave a TGI [31] of 16.7 µM, a TGI [32] of 6.24 µM and a TGI [33] of 1.89 µM. It also gave a TGI [34] of 5.18 µM, a TGI [35] of 11.2 µM and a TGI [36] of 18.2 µM. It also gave a TGI [37] of 6.94 µM, a TGI [38] of 4.98 µM and a TGI [39] of 13.3 µM. The TGI [40] was > 7.31 µM, the TGI [41] was 4.24 µM and the TGI [42] was 13.3 µM. It also gave a TGI [43] of 7.29 µM, a TGI [44] of 6.59 µM and a TGI [45] of 1.8 µM. For the same molecule, the TGI [46] was 19.1 µM, the TGI [47] was 2.63 µM and the TGI [48] was 13 µM. It also gave a TGI [49] of 14.9 µM, a TGI [50] of 15.8 µM and a TGI [51] of 19.4 µM. The TGI [52] was 3.04 µM, the TGI [53] was 14.8 µM and the TGI [54] was 0.857 µM. For the same molecule, the TGI [55] was 12.6 µM, the TGI [56] was 10.9 µM and the TGI [57] was 12.6 µM. It also gave a TGI [58] of 14.6 µM and a TGI [59] of 5.96 µM.
For `CCOC(=O)C(=O)Nc1ccc(C)cc1C`, the TGI [1] was > 100 µM, the TGI [3] was > 100 µM and the TGI [4] was > 100 µM. The TGI [6] was > 100 µM, the TGI [7] was > 100 µM and the TGI [8] was > 100 µM. For the same molecule, the TGI [60] was > 100 µM, the TGI [61] was > 100 µM and the TGI [10] was > 100 µM. For the same molecule, the TGI [11] was > 100 µM, the TGI [12] was > 100 µM and the TGI [13] was > 100 µM. The TGI [14] was > 100 µM, the TGI [62] was > 100 µM and the TGI [15] was > 100 µM. For the same molecule, the TGI [16] was > 100 µM, the TGI [18] was > 100 µM and the TGI [19] was > 100 µM. The TGI [20] was > 100 µM, the TGI [21] was > 100 µM and the TGI [22] was > 100 µM. The TGI [63] was > 100 µM, the TGI [23] was > 100 µM and the TGI [64] was > 100 µM. For the same molecule, the TGI [24] was > 100 µM, the TGI [29] was > 100 µM and the TGI [30] was > 100 µM. The TGI [31] was > 100 µM, the TGI [32] was > 100 µM and the TGI [33] was > 100 µM. The TGI [35] was > 100 µM, the TGI [36] was > 100 µM and the TGI [37] was > 100 µM. The TGI [38] was > 100 µM, the TGI [40] was > 100 µM and the TGI [41] was > 100 µM. The TGI [42] was > 100 µM, the TGI [43] was > 100 µM and the TGI [44] was > 100 µM. For the same molecule, the TGI [45] was > 100 µM, the TGI [46] was > 100 µM and the TGI [47] was > 100 µM. For the same molecule, the TGI [48] was > 100 µM, the TGI [49] was > 100 µM and the TGI [50] was > 100 µM. For the same molecule, the TGI [65] was > 100 µM, the TGI [52] was > 100 µM and the TGI [53] was > 100 µM. For the same molecule, the TGI [55] was > 100 µM, the TGI [56] was > 100 µM and the TGI [57] was > 100 µM. For the same molecule, the TGI [58] was > 100 µM and the TGI [59] was > 100 µM.
With `CC(=O)Oc1cc(OC(C)=O)c2c(=O)c3ccccc3[nH]c2c1` the TGI [3] was > 100 µM, the TGI [4] was > 100 µM and the TGI [60] was > 100 µM. The TGI [61] was > 100 µM, the TGI [66] was > 100 µM and the TGI [12] was > 100 µM. For the same molecule, the TGI [13] was > 100 µM, the TGI [62] was 51.2 µM and the TGI [18] was > 100 µM. The TGI [19] was 81.1 µM, the TGI [21] was > 100 µM and the TGI [22] was > 100 µM. The TGI [63] was > 100 µM, the TGI [64] was 86.9 µM and the TGI [24] was 67.9 µM. For the same molecule, the TGI [29] was > 100 µM, the TGI [30] was 88.9 µM and the TGI [31] was > 100 µM. For the same molecule, the TGI [32] was > 100 µM, the TGI [33] was 76.6 µM and the TGI [35] was 83.7 µM. For the same molecule, the TGI [36] was > 100 µM, the TGI [38] was > 100 µM and the TGI [41] was > 100 µM. The TGI [42] was > 100 µM, the TGI [43] was > 100 µM and the TGI [44] was 47.1 µM. For the same molecule, the TGI [45] was > 100 µM, the TGI [46] was > 100 µM and the TGI [47] was 39.1 µM. For the same molecule, the TGI [48] was 49.5 µM, the TGI [49] was > 100 µM and the TGI [50] was > 100 µM. For the same molecule, the TGI [51] was 92.8 µM, the TGI [65] was > 100 µM and the TGI [55] was > 100 µM. The TGI [57] was 85.1 µM, the TGI [58] was > 100 µM and the TGI [59] was 41.6 µM. It also gave a TGI [67] of 51.9 µM.
With `COc1cc2c(cc1OC)-c1cc3cc(OC)c(OC)cc3n1CC2` the TGI [1] was 66.6 µM, the TGI [2] was 50.6 µM and the TGI [3] was > 100 µM. For the same molecule, the TGI [4] was 85.9 µM, the TGI [6] was > 100 µM and the TGI [7] was > 100 µM. For the same molecule, the TGI [8] was > 100 µM, the TGI [60] was > 100 µM and the TGI [61] was > 100 µM. The TGI [10] was > 100 µM, the TGI [11] was > 100 µM and the TGI [12] was > 100 µM. The TGI [14] was > 100 µM, the TGI [15] was > 100 µM and the TGI [16] was > 100 µM. The TGI [18] was 56.3 µM, the TGI [19] was > 100 µM and the TGI [20] was > 100 µM. For the same molecule, the TGI [21] was > 100 µM, the TGI [68] was > 100 µM and the TGI [63] was > 100 µM. For the same molecule, the TGI [23] was > 100 µM, the TGI [64] was > 100 µM and the TGI [24] was 72.6 µM. For the same molecule, the TGI [29] was > 100 µM, the TGI [30] was 73.5 µM and the TGI [31] was > 100 µM. The TGI [32] was > 100 µM, the TGI [33] was > 100 µM and the TGI [35] was > 100 µM. For the same molecule, the TGI [36] was > 100 µM, the TGI [37] was > 100 µM and the TGI [38] was 73.1 µM. For the same molecule, the TGI [40] was > 100 µM, the TGI [42] was > 100 µM and the TGI [43] was > 100 µM. For the same molecule, the TGI [45] was > 100 µM, the TGI [46] was > 100 µM and the TGI [48] was > 100 µM. For the same molecule, the TGI [49] was > 100 µM, the TGI [50] was 95.8 µM and the TGI [51] was 50.5 µM. The TGI [65] was > 100 µM, the TGI [52] was > 100 µM and the TGI [53] was > 100 µM. For the same molecule, the TGI [55] was 51.9 µM, the TGI [56] was > 100 µM and the TGI [57] was > 100 µM. The TGI [58] was > 100 µM, the TGI [59] was > 100 µM and the TGI [67] was 59.7 µM.
